# Experimental data from PubChem BioAssay (NCI).
#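 Results reflect a 48-hour exposure of cells in 96-well plates to compound at five concentrations. At the TGI there is no net growth.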
# What was measured:
# Experiment in all cases: DTP human tumour cell line panel, 48 h
# [1] = system: COLO 205 colon
# [2] = system: SN12C renal
# [3] = system: HS 578T breast
# [4] = system: MDA-N
# [5] = system: A549 NSCLC
# [6] = system: K-562 leukemia
# [7] = system: CCRF-CEM leukemia
# [8] = system: MDA-MB-435
# [9] = system: SF-268 CNS
# [10] = system: 786-0 renal
# [11] = system: IGROV1 ovarian
# [12] = system: SK-MEL-2 melanoma
# [13] = system: CAKI-1 renal
# [14] = system: NCI-H23 lung
# [15] = system: RPMI-8226 leukemia
# [16] = system: SK-OV-3 ovarian
# [17] = system: EKVX NSCLC
# [18] = system: OVCAR-8 ovarian
# [19] = system: MOLT-4 leukemia
# [20] = system: SR leukemia
Compound,TGI [1] [µM],TGI [2] [µM],TGI [3] [µM],TGI [4] [µM],TGI [5] [µM],TGI [6] [µM],TGI [7] [µM],TGI [8] [µM],TGI [9] [µM],TGI [10] [µM],TGI [11] [µM],TGI [12] [µM],TGI [13] [µM],TGI [14] [µM],TGI [15] [µM],TGI [16] [µM],TGI [17] [µM],TGI [18] [µM],TGI [19] [µM],TGI [20] [µM]
Cc1cn(C2CC(N=[N+]=[N-])C(CO)O2)c(=O)n(CCCCO)c1=O (centres undefined),> 100,> 100,> 100,> 100,> 100,> 100,> 100,> 100,> 100,> 100,> 100,> 100,> 100,> 100,> 100,> 100,> 100,> 100,> 100,–
O=C(/C=C/c1ccc(O)cc1)c1cc(O)cc(O)c1,31.9,28.4,> 100,26.7,30.6,18.4,35.1,38.9,54.3,30.6,26.6,34.9,43.8,43.3,21.3,42.4,32.5,27.6,45.3,–
CCN1C(=O)C(N=[N+]=[N-])(c2ccccc2)C(=O)c2ccccc21 (centres undefined),> 100,> 100,–,–,> 100,> 100,> 100,–,> 100,> 100,> 100,> 100,> 100,> 100,> 100,> 100,> 100,–,> 100,> 100
CC(=O)O[C@]12CCCCC1C1(O)C(O)CCCC[C@H]12 (some centres undefined),> 100,> 100,–,–,> 100,> 100,> 100,–,> 100,> 100,–,> 100,–,> 100,> 100,> 100,> 100,> 100,> 100,> 100
ClCCCC1COc2ccccc2O1 (centres undefined),> 100,> 100,–,> 100,> 100,> 100,> 100,–,> 100,> 100,> 100,–,> 100,–,–,> 100,> 100,> 100,> 100,> 100
CC(C(=O)N1C(=O)N(C(=O)[C@H](C)C(O)c2ccccc2)[C@H](c2ccccc2)[C@H]1c1ccccc1)[C@@H](O)c1ccccc1 (some centres undefined),33.2,> 100,–,60.7,> 100,> 100,–,54.3,> 100,82.8,64.9,42.6,72.4,> 100,–,> 100,93.4,> 100,–,> 100
COC1CC(n2ccc(=O)[nH]c2=O)OC1CO (centres undefined),> 100,> 100,–,> 100,> 100,> 100,> 100,> 100,> 100,> 100,> 100,> 100,> 100,> 100,–,> 100,> 100,> 100,> 100,> 100
CN(C)C(=O)C(F)(F)C(c1ccc(C(F)(F)F)cc1)C1C(=O)N(C)C(=O)N(C)C1=O (centres undefined),> 100,–,–,–,> 100,–,> 100,> 100,> 100,> 100,–,> 100,> 100,> 100,> 100,> 100,> 100,–,–,–
CCOc1ccc(N=Nc2c(-c3ccccc3)nn(C(=O)CC(=O)Nc3cccc(C)c3)c2-c2ccccc2)cc1,> 100,> 100,–,–,> 100,> 100,> 100,–,> 100,> 100,> 100,> 100,> 100,> 100,> 100,> 100,> 100,> 100,> 100,> 100
Cc1cccc2c(N)c3cccc(C(=O)NCCN4CCOCC4)c3nc12,2.49,7.97,0.43,2.91,7.92,–,–,2.12,1.19,20.5,3.4,2.61,17.3,2.17,> 60.4,16.9,5.66,–,1.71,–
Cc1cc(S(=O)(=O)Nc2nc(N)nc(N(C)C)n2)c(SC(C(=O)O)c2ccccc2)cc1Cl (centres undefined),> 10,> 10,> 10,> 10,> 10,> 10,> 10,–,> 10,> 10,> 10,> 10,> 10,> 10,> 10,> 10,> 10,> 10,> 10,> 10
O=C1NCC2(CCNCC2)N1,> 100,> 100,> 100,–,> 100,–,> 100,> 100,> 100,> 100,> 100,–,–,> 100,> 100,> 100,> 100,> 100,> 100,> 100
Cc1ccc(C(=O)c2[nH]c(Nc3ccc(Cl)cc3)c(C(=S)Nc3ccccc3)c2N)cc1,2.84,27.4,–,20.6,5.29,24,> 100,19.7,23.3,6.4,15,31.7,30.6,9.1,18,27.3,19,18.1,32.6,10.7
COC(=O)C1CCC[C@H]2C(CO)=C(C)C(=O)[C@@H]12 (some centres undefined),> 100,> 100,–,–,> 100,> 100,> 100,–,> 100,> 100,> 100,> 100,> 100,> 100,> 100,> 100,> 100,> 100,> 100,> 100
